Tested on: Acinetobacter baumannii strains
Assay: Antibiotic susceptibility test (CLSI disk diffusion test method, read per CLSI 2016); on antibiotic susceptibility S/I/R: key: ‘S’ means susceptible; ‘I’ means intermediate; ‘R’ means resistant; on antibiotic susceptibility class: key: ‘S’ means susceptible; ‘I’ means intermediate; ‘R’ means resistant; on susceptibility category (S/I/R): key: ‘S’ means susceptible; ‘I’ means intermediate; ‘R’ means resistant
Format: cell-based
Set-up: antibiotic susceptibility test value / susceptibility test value (number given before S/I/R) / antibiotic susceptibility value: unit not given here

gentamicin
16: antibiotic susceptibility test value (host strain YMC14/01/C29) | antibiotic susceptibility test value (host strain YMC14/01/IP122) | antibiotic susceptibility test value (host strain YMC14/01/L8) | antibiotic susceptibility test value (host strain YMC14/01/P31) | antibiotic susceptibility test value (host strain YMC14/01/P117) | antibiotic susceptibility test value (host strain YMC14/01/P224) | antibiotic susceptibility test value (host strain YMC14/01/P727) | antibiotic susceptibility test value (host strain YMC14/01/P728) | antibiotic susceptibility test value (host strain YMC14/01/R130) | antibiotic susceptibility test value (host strain YMC14/01/R160) | antibiotic susceptibility test value (host strain YMC14/01/R198) | antibiotic susceptibility test value (host strain YMC14/01/R270) | antibiotic susceptibility test value (host strain YMC14/01/R324) | antibiotic susceptibility test value (host strain YMC14/01/R443) | antibiotic susceptibility test value (host strain YMC14/01/R451) | antibiotic susceptibility test value (host strain YMC14/01/R617) | antibiotic susceptibility test value (host strain YMC14/01/R671) | antibiotic susceptibility test value (host strain YMC14/01/R732) | antibiotic susceptibility test value (host strain YMC14/01/R767) | antibiotic susceptibility test value (host strain YMC14/01/R904) | antibiotic susceptibility test value (host strain YMC14/01/R905) | antibiotic susceptibility test value (host strain YMC14/01/R941) | antibiotic susceptibility test value (host strain YMC14/01/R958) | antibiotic susceptibility test value (host strain YMC14/01/R1006) | antibiotic susceptibility test value (host strain YMC14/01/R1199) | antibiotic susceptibility test value (host strain YMC14/01/R1659) | antibiotic susceptibility test value (host strain YMC14/01/R1722) | antibiotic susceptibility test value (host strain YMC14/01/R1752) | antibiotic susceptibility test value (host strain YMC14/01/R2429) | antibiotic susceptibility test value (host strain YMC14/01/R2572) | antibiotic susceptibility test value (host strain YMC14/01/R2855) | antibiotic susceptibility test value (host strain YMC14/01/R2945) | antibiotic susceptibility test value (host strain YMC14/01/R3007) | antibiotic susceptibility test value (host strain YMC14/01/R3129) | antibiotic susceptibility test value (host strain YMC14/01/R3317) | antibiotic susceptibility test value (host strain YMC14/01/R3474) | antibiotic susceptibility test value (host strain YMC14/01/R3574) | antibiotic susceptibility test value (host strain YMC14/01/U313) | antibiotic susceptibility test value (host strain YMC14/01/U318) | antibiotic susceptibility test value (host strain YMC14/02/L18) | antibiotic susceptibility test value (host strain YMC14/02/P47) | antibiotic susceptibility test value (host strain YMC14/02/R2417) | antibiotic susceptibility test value (host strain YMC14/02/R2668) | antibiotic susceptibility test value (host strain YMC14/02/R2758) | antibiotic susceptibility test value (host strain YMC14/02/R2781) | antibiotic susceptibility test value (host strain YMC14/02/R3106) | antibiotic susceptibility test value (host strain YMC14/02/R3419) | antibiotic susceptibility test value (host strain YMC14/02/U1607) | antibiotic susceptibility test value (host strain YMC14/03/L9) | antibiotic susceptibility test value (host strain YMC14/03/R122) | antibiotic susceptibility test value (host strain YMC14/03/R217) | antibiotic susceptibility test value (host strain YMC14/03/R380) | antibiotic susceptibility test value (host strain YMC14/03/R2144) | antibiotic susceptibility test value (host strain YMC14/03/U4616) | antibiotic susceptibility value (host strain YMC14/06/R2359) | susceptibility test value (number given before S/I/R) (host strain YMC14/06/R2359) | antibiotic susceptibility value (host strain YMC14/08/R1169) | susceptibility test value (number given before S/I/R) (host strain YMC14/08/R1169) | antibiotic susceptibility value (host strain YMC14/08/T90) | susceptibility test value (number given before S/I/R) (host strain YMC14/08/T90) | antibiotic susceptibility value (host strain YMC15/02/R436) | susceptibility test value (number given before S/I/R) (host strain YMC15/02/R436) | antibiotic susceptibility value (host strain YMC15/02/T28) | susceptibility test value (number given before S/I/R) (host strain YMC15/02/T28) | antibiotic susceptibility value (host strain YMC15/03/R1604) | susceptibility test value (number given before S/I/R) (host strain YMC15/03/R1604) | antibiotic susceptibility value (host strain YMC15/09/R1869) | susceptibility test value (number given before S/I/R) (host strain YMC15/09/R1869) | antibiotic susceptibility value (host strain YMC16/01/P11) | susceptibility test value (number given before S/I/R) (host strain YMC16/01/P11) | antibiotic susceptibility value (host strain YMC16/01/R123) | susceptibility test value (number given before S/I/R) (host strain YMC16/01/R123) | antibiotic susceptibility value (host strain YMC16/01/R198) | susceptibility test value (number given before S/I/R) (host strain YMC16/01/R198)
8: antibiotic susceptibility test value (host strain YMC14/01/R921) | antibiotic susceptibility test value (host strain YMC14/02/R1860)
2: antibiotic susceptibility test value (host strain YMC14/01/R560) | antibiotic susceptibility test value (host strain YMC14/02/R2599) | antibiotic susceptibility test value (host strain YMC14/03/P471) | antibiotic susceptibility test value (host strain YMC14/03/R618) | antibiotic susceptibility test value (host strain YMC14/04/R1078) | antibiotic susceptibility test value (host strain YMC14/04/R1080)
I: antibiotic susceptibility class (host strain YMC14/01/R921) | antibiotic susceptibility class (host strain YMC14/02/R1860)
S: antibiotic susceptibility class (host strain YMC14/01/R257) | antibiotic susceptibility class (host strain YMC14/01/R560) | antibiotic susceptibility class (host strain YMC14/02/R2599) | antibiotic susceptibility class (host strain YMC14/03/P471) | antibiotic susceptibility class (host strain YMC14/03/R618) | antibiotic susceptibility class (host strain YMC14/04/R1078) | antibiotic susceptibility class (host strain YMC14/04/R1080)
R: antibiotic susceptibility class (host strain YMC14/01/C29) | antibiotic susceptibility class (host strain YMC14/01/IP122) | antibiotic susceptibility class (host strain YMC14/01/L8) | antibiotic susceptibility class (host strain YMC14/01/P31) | antibiotic susceptibility class (host strain YMC14/01/P117) | antibiotic susceptibility class (host strain YMC14/01/P224) | antibiotic susceptibility class (host strain YMC14/01/P727) | antibiotic susceptibility class (host strain YMC14/01/P728) | antibiotic susceptibility class (host strain YMC14/01/R130) | antibiotic susceptibility class (host strain YMC14/01/R160) | antibiotic susceptibility class (host strain YMC14/01/R198) | antibiotic susceptibility class (host strain YMC14/01/R270) | antibiotic susceptibility class (host strain YMC14/01/R324) | antibiotic susceptibility class (host strain YMC14/01/R443) | antibiotic susceptibility class (host strain YMC14/01/R451) | antibiotic susceptibility class (host strain YMC14/01/R617) | antibiotic susceptibility class (host strain YMC14/01/R671) | antibiotic susceptibility class (host strain YMC14/01/R732) | antibiotic susceptibility class (host strain YMC14/01/R767) | antibiotic susceptibility class (host strain YMC14/01/R904) | antibiotic susceptibility class (host strain YMC14/01/R905) | antibiotic susceptibility class (host strain YMC14/01/R941) | antibiotic susceptibility class (host strain YMC14/01/R958) | antibiotic susceptibility class (host strain YMC14/01/R1006) | antibiotic susceptibility class (host strain YMC14/01/R1199) | antibiotic susceptibility class (host strain YMC14/01/R1659) | antibiotic susceptibility class (host strain YMC14/01/R1722) | antibiotic susceptibility class (host strain YMC14/01/R1752) | antibiotic susceptibility class (host strain YMC14/01/R2429) | antibiotic susceptibility class (host strain YMC14/01/R2572) | antibiotic susceptibility class (host strain YMC14/01/R2855) | antibiotic susceptibility class (host strain YMC14/01/R2945) | antibiotic susceptibility class (host strain YMC14/01/R3007) | antibiotic susceptibility class (host strain YMC14/01/R3129) | antibiotic susceptibility class (host strain YMC14/01/R3317) | antibiotic susceptibility class (host strain YMC14/01/R3474) | antibiotic susceptibility class (host strain YMC14/01/R3574) | antibiotic susceptibility class (host strain YMC14/01/U313) | antibiotic susceptibility class (host strain YMC14/01/U318) | antibiotic susceptibility class (host strain YMC14/02/L18) | antibiotic susceptibility class (host strain YMC14/02/P47) | antibiotic susceptibility class (host strain YMC14/02/R2417) | antibiotic susceptibility class (host strain YMC14/02/R2668) | antibiotic susceptibility class (host strain YMC14/02/R2758) | antibiotic susceptibility class (host strain YMC14/02/R2781) | antibiotic susceptibility class (host strain YMC14/02/R3106) | antibiotic susceptibility class (host strain YMC14/02/R3419) | antibiotic susceptibility class (host strain YMC14/02/U1607) | antibiotic susceptibility class (host strain YMC14/03/L9) | antibiotic susceptibility class (host strain YMC14/03/R122) | antibiotic susceptibility class (host strain YMC14/03/R217) | antibiotic susceptibility class (host strain YMC14/03/R380) | antibiotic susceptibility class (host strain YMC14/03/R2144) | antibiotic susceptibility class (host strain YMC14/03/U4616) | antibiotic susceptibility S/I/R (host strain YMC14/06/R2359) | susceptibility category (S/I/R) (host strain YMC14/06/R2359) | antibiotic susceptibility S/I/R (host strain YMC14/08/R1169) | susceptibility category (S/I/R) (host strain YMC14/08/R1169) | antibiotic susceptibility S/I/R (host strain YMC14/08/T90) | susceptibility category (S/I/R) (host strain YMC14/08/T90) | antibiotic susceptibility S/I/R (host strain YMC15/02/R436) | susceptibility category (S/I/R) (host strain YMC15/02/R436) | antibiotic susceptibility S/I/R (host strain YMC15/02/T28) | susceptibility category (S/I/R) (host strain YMC15/02/T28) | antibiotic susceptibility S/I/R (host strain YMC15/03/R1604) | susceptibility category (S/I/R) (host strain YMC15/03/R1604) | antibiotic susceptibility S/I/R (host strain YMC15/09/R1869) | susceptibility category (S/I/R) (host strain YMC15/09/R1869) | antibiotic susceptibility S/I/R (host strain YMC16/01/P11) | susceptibility category (S/I/R) (host strain YMC16/01/P11) | antibiotic susceptibility S/I/R (host strain YMC16/01/R123) | susceptibility category (S/I/R) (host strain YMC16/01/R123) | antibiotic susceptibility S/I/R (host strain YMC16/01/R198) | susceptibility category (S/I/R) (host strain YMC16/01/R198) | antibiotic susceptibility S/I/R (host strain YMC16/01/R353)
1: antibiotic susceptibility test value (host strain YMC14/01/R257)

— patent US20240000872A1, “NOVEL BACTERIOPHAGE THAT LYSES ACINETOBACTER GENUS BACTERIA HAVING RESISTANCE TO ANTIBIOTICS” (priority 2020, published 2024)
